Key:
Type in all cases: cell-based
IFN-γ = test: Inhibition of IFN-γ in LPS-stimulated primary PBMCs (MSD U-plex); conditions: human PBMCs, LPS (500 ng/mL), Compound 10 (150 nM), 24 hrs; MSD platform; FIG. 15
Procedure: (§1) Primary peripheral blood mononuclear cells (PBMCs) freshly isolated from healthy human donors were obtained from AllCells Inc. and utilized for assays immediately. Compound 10 was dissolved in DMSO as a 10 mM stock and used to prepare compound source plates. A serial dilution (8-point dose-response) and compound transfer was performed using the ECHO 550 (Labcyte, Sunnyvale, Calif.) into 96-well clear bottom assay plates (Greiner Bio-One) with appropriate DMSO backfill for a final DMSO concentration of 0.05%. PBMCs were plated at 2×10e^5 cells/well in Roswell Park Memorial Institute (RPMI) 1640 Medium (Catalog #21870-100, Buffalo, N.Y.) with 1% L-glutamine, 1% HEPES, 1% Sodium Pyruvate, 2% Sodium Bicarbonate supplemented with 100 units/mL penicillin, 50 μg/mL streptomycin and 1% fetal bovine serum (Catalog #16140089, Life Technologies, Carlsbad, Calif.). […]
(§2) Supernatants were diluted appropriately for ELISA. […] Following several washes to remove unbound avidin-HRP, the TMB substrate was added and the plates were read on the Cytation 3 plate reader (Biotek Inc., Winooski, Vt.) at an absorbance of 450 nm with correction at 570 nm. […] Inhibition profile and EC50 was calculated using Prism 5 (GraphPad Software Inc, La Jolla, Calif., USA). […] Levels of cytokines were calculated using software form Meso Scale Discovery.

IL-6 = test: Inhibition of IL-6 in LPS-stimulated human monocyte cells (THP-1), HTRF; conditions: Homo sapiens; THP-1 cells, LPS 500 ng/mL, IL-6 by HTRF
Procedure: Human Monocyte Cell Culture: A human monocyte cell line (THP-1 cells; Catalog #TIB-202, ATCC, Manassas, Va.) was cultured in Roswell Park Memorial Institute (RPMI) 1640 Medium (Catalog #21870-100, Buffalo, N.Y.) with 1% L-glutamine, 1% HEPES, 1% sodium pyruvate, 2% sodium bicarbonate supplemented with 100 units/mL penicillin, 50 μg/mL streptomycin, 2-mercaptoethanol (0.05 mM) [basal medium] and 10% fetal bovine serum (Catalog #16140089, Life Technologies, Carlsbad, Calif.) at 37° C. and 5% CO2.
Compound Screening: THP-1 cells were cultured in basal media with 1% FBS for 24 hours before the start of the assay. Each compound of Formula (I) was dissolved in DMSO as a 10 mM stock and used to prepare compound source plates. Serial dilution (1:3, 10-point dose-response curves starting from 10 μM) and compound transfer was performed using the ECHO 550 (Labcyte, Sunnyvale, Calif.) into 384-well white low volume assay plates (Greiner Bio-One) with appropriate DMSO backfill for a final DMSO concentration of 0.1%. THP-1 cells were plated at 5000 cells/well in the 384-well plates and incubated at 37° C. for 2 h. 500 ng/mL of LPS was added after 2 hours and cells were incubated for another 22 hours at 37° C. Plates were spun in a centrifuge for 1 minute at 10,000 rpm and a mixture of anti-IL-6 XL665, and anti-IL-6 Cryptate diluted in reconstitution buffer (Cisbio Inc.) was added to each well. Following incubation for 3 hrs at room temperature, homogeneous time-resolved fluorescence (HTRF) was measured using the Envision (Perkin Elmer) at 665 nm and […]. The ratio of fluorescence at 665 nm to 620 nm was used as a readout for IL-6 quantification. All samples were processed in duplicate. Readings were normalized to DMSO treated cells and normalized activities were utilized for EC50 calculations using the dose-response log (inhibitor) vs. response -variable slope (four parameters) nonlinear regression feature available in GraphPad Prism 5.0 (or Dotmatics). For EC50 of >10 μM, the percent inhibition at 10 μM is provided.

[1] = tested on: Tumor Necrosis Factor Alpha (TNF-α); test: Inhibition of TNF-α secretion in IL-1β-stimulated synovial fibroblasts (SW982), ELISA; conditions: human synovial fibroblasts stimulated with IL-1β, treated 24 hrs, FIG. 14A
Procedure: Synovial fibroblasts (SW982 cells; ATCC) were cultured in Leibovitz's L-15 Medium (ATCC) with 10% FBS at 37° C. and 0% CO2. 24 hours before the start of the assay, media was changed to Leibovitz's L-15 Medium with […]. Compound 10 was dissolved in DMSO as a 10 mM stock and used to prepare compound source plates. A serial dilution (8-point dose-response) and compound transfer was performed using the ECHO 550 (Labcyte, Sunnyvale, Calif.) into 96-well clear bottom assay plates (Greiner Bio-One) with appropriate DMSO backfill for a final DMSO concentration of 0.05%. […] Plates were spun in a centrifuge for 1 minute at 10,000 rpm and supernatants were collected for ELISA.
Supernatants were diluted 1:1 for the TNFα assay and 1:4 for the IL6 assay using the assay medium. ELISA was performed using Human TNF-α ELISA MAX™ Deluxe (Catalog #430204, Biolegend, San Diego, Calif.) and Human IL-6 ELISA MAX™ Deluxe (Catalog #430504, Biolegend, San Diego, Calif.) kits. […] Following several washes to remove unbound avidin-HRP, the TMB substrate was added and the plates were read on the Cytation 3 plate reader (Biotek Inc., Winooski, Vt.) at an absorbance of 450 nm with correction at 570 nm. […] Inhibition profile and EC50 was calculated using Prism 5 (GraphPad Software Inc, La Jolla, Calif., USA).

IL-1β = test: Inhibition of IL-1β in LPS-stimulated primary PBMCs (MSD U-plex); conditions: human PBMCs, LPS (500 ng/mL), Compound 10 (150 nM), 24 hrs; MSD platform; FIG. 15
Procedure: as §1, §2

EC50 (IL-6): 13 nM
Structure (SMILES): CC(C)CC(=O)Nc1cncc(-c2ccc3[nH]nc(-c4nc5c(-c6cccc(F)c6)cncc5[nH]4)c3c2)c1 [Compound 10]
Inhibition of IFN-γ (IFN-γ): Inhibition
inhibition of TNF-a secretion [1]: inhibition
Inhibition of IL-1β (IL-1β): Inhibition
